Columns and labels:
[1] = tested on: IL-1α expression in stimulated human-derived white blood cells; test: Combination therapeutic assay, IL-1α content; type: cell-based; conditions: DOX at 5.69 ug/ml, DEX at 1 ug/ml, alone or combined; 24 hours at 37° C.
Description: To assay for cytokine concentration, the solution in each test well was transferred to microcentrifuge tubes and centrifuged (3000 rpm) for 5 minutes to pellet any cells that were drawn from the wells. The supernatants were then transferred to fresh tubes and stored in a minus 85° C. freezer until used. The cytokine content in the stored supernatants was determined using commercially available cytokine ELISA- (enzyme linked immunosorbent assays) based assays from, for example, R&D Systems, Minneapolis, Minn., using the manufacturer's instructions. Essentially, the procedure was as follows: first, 200 μl of the test samples were added to each well of the microplates. The wells of the microplates were precoated with monoclonal antibodies specific to the cytokine being analyzed. All lipopolysaccharide-(LPS) treated samples were diluted 1:10 in RPMI growth media prior to the assay. The plates were covered and incubated for 2 hours at room temperature. Each well was then washed three times with wash buffer (350 μl/well), and 200 μl of cytokine conjugate were added to each well, covered, and incubated for 1 hour at room temperature. Next, 200 μl of substrate solution were added to each well and incubated for 20 minutes at room temperature. […] The optical density readings of the color development were determined in a microplate reader set at 450 nm wavelength. […]

[2] = Stability assay of doxycycline and dexamethasone in combination; type: physicochemical; conditions: DOX (56.9 ug/ml)+DEX (10 ug/ml) mixture, 4 days at 37° C.
Description: A stability assay was first performed to ascertain whether doxycycline and dexamethasone react with one another. High concentrations of each solution were combined (DOX (56.9 ug/ml)+DEX (10 ug/ml)) and allowed to incubate for 4 days at 37° C. in an orbital shaker. At the end of four days the concentrations of each drug in the mixture was determined by spectrophotometry and compared to the original concentrations.

[3] = tested on: MMP-9 secretion from PHA-stimulated human white blood cells; test: MMP assay: effect of doxycycline on MMP-9 secretion from PHA-stimulated human white blood cells; type: cell-based; conditions: PHA 10 μg/ml
Description: To perform an MMP assay to assess the effect of doxycycline on human-derived white blood cells, cells were seeded into 24 well tissue culture plates. The drug concentrations selected for the experiment were based on measured tissue levels of doxycycline following an oral dose of 100 mg. The cells were exposed to the drugs under two schemes. In scheme 1, the cells, the stimulant and the drug were all added at the same time and allowed to incubate for a period of 24 hours. In scheme 2 the cells were preconditioned with the drug for a period of 24 hours and then stimulated with PHA for an additional 24 hours. In this case the total experimental time duration was 48 hours. The seeding densities: 5×10^6 cells per well and assay conditions were as follows: PHA at a working concentration of 10 μg/ml; doxycycline concentrations at 0, 2.5, 5, 10, 12, or 15 μM and either a 24 hour (scheme 1) or 48 hour (scheme 2) duration. MMP-9 analysis was performed using a Quantikine Human MMP-9 (total) Immunoassay (R&D Systems, #DMP900).

[4] = tested on: MMP-9 expression in stimulated human-derived white blood cells; test: Combination therapeutic assay, MMP-9 content; type: cell-based; conditions: DOX at 5.69 ug/ml, DEX at 1 ug/ml, alone or combined; 24 hours at 37° C.
Description: Next, to test the effect of therapeutics in combination, assays were performed to determine the effect of doxycycline alone (DOX at 5.69 ug/ml); dexamethasone alone (DEX at 1 ug/ml) and the effect of a combination of doxycycline and dexamethasone (DOX at 5.69 ug/ml)+DEX at 1 ug/ml). Dexamethasone is a potent agent with broad anti-inflammatory (against cytokines, chemokines, prostaglandins, etc.) and immunosuppressive properties. Dexamethasone also has known anti-angiogenic properties. Doxycycline was used as the MMP inhibitor for these studies.
Briefly, human-derived white blood cells were placed in a 24 well plate and exposed to a stimulant (PHA or lipopolysaccharide (LPS)) and the three different treatment regimes for a period of 24 hours at 37° C. The supernatants were then collected and assayed for MMP-9 and IL-1 content.

[5] = cited from earlier work; for elimination / clearance route: in vivo
[6] = target: ACE (Homo sapiens, UniProt P12821); conditions: in vitro; cited from earlier work
[7] = tested on: MMP-9 secretion from human-derived white blood cells; test: MMP assay development: effect of stimulants on MMP-9 release from human-derived white blood cells; type: cell-based; conditions: PHA 10 μg/ml alone, five million (5M) cells per well, 24 hours at 37° C.
Excerpt: MMP assay development involved two separate determinations. The first set of experiments established the working conditions for the assay, namely the optimal cell density and the choice and concentration of stimulant. MMP-9 is secreted by monocytes, macrophages, and neutrophils, amongst other cells; however, under non-stimulatory in vitro conditions the basal level secretion of MMP-9 by these cells is very low. Thus, for the second set of experiments (performed to determine the inhibitory effects of potential drugs or reagents), the levels of MMP secretion were raised to sufficiently high levels so that drug-mediated differences could be detected.
Human-derived white blood cells were isolated from human blood by a procedure such as that described above. The total cell population was adjusted and added to 24 well polystyrene tissue culture plates in the following cell densities: 5 million, 2 million, 1 million and 0.5 million per well. The stimulants used to stimulate MMP secretion were PMA (phorbol 12-myristate 13-acetate, Sigma #P8139) at a working concentration of 100 nM; PHA (phythohemagglutinin, Sigma #L9017) at a working concentration of 10 μg/ml; and PMA (100 nM)+PHA (10 μg/ml). […] The secreted MMP was determined by ELISA using a Quantikine Human MMP-9 (total) Immunoassay (R&D Systems, #DMP900).

Sequence of ACE (P12821 30-1306, species assumed): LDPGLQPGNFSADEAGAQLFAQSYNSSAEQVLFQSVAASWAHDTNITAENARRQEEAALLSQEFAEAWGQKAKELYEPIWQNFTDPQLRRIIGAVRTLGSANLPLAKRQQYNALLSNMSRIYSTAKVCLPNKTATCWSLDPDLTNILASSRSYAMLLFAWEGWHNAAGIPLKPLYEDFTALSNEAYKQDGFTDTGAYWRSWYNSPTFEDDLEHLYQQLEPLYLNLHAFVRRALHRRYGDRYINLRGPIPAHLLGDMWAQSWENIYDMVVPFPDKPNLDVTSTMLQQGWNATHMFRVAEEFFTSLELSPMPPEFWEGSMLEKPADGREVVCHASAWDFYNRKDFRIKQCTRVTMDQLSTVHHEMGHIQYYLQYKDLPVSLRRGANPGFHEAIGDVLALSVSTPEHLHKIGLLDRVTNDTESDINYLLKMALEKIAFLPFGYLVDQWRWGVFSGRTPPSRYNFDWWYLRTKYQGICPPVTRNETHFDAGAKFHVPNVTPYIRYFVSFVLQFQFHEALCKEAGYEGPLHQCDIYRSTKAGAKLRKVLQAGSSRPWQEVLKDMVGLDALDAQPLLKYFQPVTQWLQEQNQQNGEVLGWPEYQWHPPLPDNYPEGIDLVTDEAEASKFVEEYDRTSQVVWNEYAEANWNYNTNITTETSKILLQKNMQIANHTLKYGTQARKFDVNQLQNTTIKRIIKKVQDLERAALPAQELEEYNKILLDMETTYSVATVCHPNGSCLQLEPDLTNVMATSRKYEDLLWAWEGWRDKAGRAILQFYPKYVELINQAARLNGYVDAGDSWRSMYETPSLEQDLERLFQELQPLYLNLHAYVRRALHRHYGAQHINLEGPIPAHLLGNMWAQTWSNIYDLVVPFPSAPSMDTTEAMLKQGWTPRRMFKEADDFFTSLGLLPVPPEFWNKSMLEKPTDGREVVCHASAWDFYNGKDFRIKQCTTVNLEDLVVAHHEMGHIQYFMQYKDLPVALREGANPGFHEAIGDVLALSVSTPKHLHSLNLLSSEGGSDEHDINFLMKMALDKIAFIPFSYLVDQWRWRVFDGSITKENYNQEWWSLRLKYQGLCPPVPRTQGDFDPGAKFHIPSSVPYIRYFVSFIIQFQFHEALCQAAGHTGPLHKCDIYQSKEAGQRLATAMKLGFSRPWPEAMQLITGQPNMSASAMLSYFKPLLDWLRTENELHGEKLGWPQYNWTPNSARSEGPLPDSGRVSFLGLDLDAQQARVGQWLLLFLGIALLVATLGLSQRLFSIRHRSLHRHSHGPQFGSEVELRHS

C[C@@H]1C[C@H]2[C@@H]3CCC4=CC(=O)C=C[C@]4(C)[C@@]3(F)[C@@H](O)C[C@]2(C)[C@@]1(O)C(=O)CO [DEX, dexamethasone]
inhibition of IL expression compared to the control [1]: approximately 85%

CC1c2cccc(O)c2C(=O)C2=C(O)C3(O)C(=O)C(C(N)=O)=C(O)C(N(C)C)C3C(O)C21.O (stereo not shown) [DOX, 4-(Dimethylamino)-1,4,4a,5,5a,6,11, 12a-octahydro-3,5,10,12,12a-pentahydroxy-6-methyl-1,11-dioxo-2-naphthacenecarboxamide monohydrate]
inhibition of IL expression compared to the control [1]: no effect on inflammatory cytokine expression | Final Concentration ([2]; MES buffer): ˜56.7 ug/ml | Final Concentration ([2]; PBS buffer): ˜57.5/ml ug/ml | effect on MMP-9 expression over 0-15 μM ([3]; doxycycline 0, 2.5, 5, 10, 12, or 15 μM): dose-dependent inhibitory effect | inhibition of MMP-9 expression ([3]; doxycycline at 15 μM, 5×10^6 cells per well, scheme 1 (24 hour) or scheme 2 (48 hour)): ~60% | inhibition of MMP-9 compared to the control [4]: approximately 32%

C[C@H](CS)C(=O)N1CCC[C@H]1C(=O)O [captopril]
bioavailability ([5]; given orally): about 75%

CCC(=O)O[C@@H](O[P@](=O)(CCCCc1ccccc1)CC(=O)N1C[C@H](C2CCCCC2)C[C@H]1C(=O)O)C(C)C [fosinopril]
elimination / clearance route [5]: balanced elimination by the liver and kidneys

NCCCC[C@H](N[C@@H](CCc1ccccc1)C(=O)O)C(=O)N1CCC[C@H]1C(=O)O [lisinopril]
ACE inhibitor potency compared with enalaprilat [6]: slightly more potent | time of peak concentrations in the plasma ([5]; oral administration): about 7 hours

CCOC(=O)[C@H](CCc1ccccc1)N[C@@H](C)C(=O)N1CC2(C[C@H]1C(=O)O)SCCS2 [spirapril]
elimination / clearance route [5]: balanced elimination by the liver and kidneys

phythohemagglutinin [PHA]
increase in MMP-9 secretion over basal levels [7]: greater than 200 fold
